We go through three compounds from PMC12040969, “Design, synthesis, in silico studies, and apoptotic antiproliferative activity of novel thiazole-2-acetamide derivatives as tubulin polymerization inhibitors” (Frontiers in Chemistry, 2025).

The test system of one data set is tubulin. Description: Tubulin polymerization inhibition assay (Cytoskeleton kit).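 On all read-outs here: Cell-free tubulin polymerization read by fluorescent reporter enhancement over a 30 min reaction, with the compound-free kit control taken as 100% activity and inhibition relative to it.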 As to conditions: for Tub. enzyme inhibition assay %inhibition: 30 min, codes 522-537 run; for Tub. enzyme inhibition assay K. Activity: control = 120, codes 522-537 run; for IC50: read-out: Tubulin inhibition IC50 ± SEM, triplicate for each tested concentration; for Tub. (IC50) IC50±SD: supplement raw data, lab codes.

Data set [1] is described as follows: Cell viability assay (MTT), normal cells. The class given is cell-based. As to conditions: human, MCF-10A normal mammary gland epithelial cells, four-day incubation. The method, then: The impact of novel compounds 10a-o and 13a-e on cell viability was examined using the MCF-10A (human mammary gland epithelial) normal cell line. The MTT test was employed to assess the cell viability of the novel compounds after a four-day incubation with MCF-10A cells ([El-Sherief et al., 2019]; [Ramadan et al., 2020]).
The effects of compounds 10a-o and 13a-e on cell viability were assessed using the human mammary gland epithelial normal cell line (MCF-10A). The MTT assay assessed the cell viability of compounds 10a-o and 13a-e following a four-day incubation with MCF-10A cells ([El-Sherief et al., 2019]; [Ramadan et al., 2020]). Check Supplementary Appendix A for additional information.
4.2. Biological evaluation
4.2.1 Cell Viability assay (MTT assay)
MTT assay was performed to investigate the effect of the synthesized compounds on mammary epithelial cells (MCF-10A). The cells were propagated in medium consisting of Ham's F-12 medium/ Dulbecco's modified Eagle's medium (DMEM) (1:1) supplemented with 10% foetal calf serum, 2 mM glutamine, insulin (10 μg/mL), hydrocortisone (500 ng/mL) and epidermal growth factor (20 ng/mL). Trypsin ethylenediamine tetra acetic acid (EDTA) was used to passage the cells after every 2-3 days. 96-well flat-bottomed cell culture plates were used to seed the cells at a density of 10^4 cells mL-1. The medium was aspirated from all the wells of culture plates after 24 h followed by the addition of synthesized compounds (in 200 μL medium to yield a final concentration of 0.1% (v/v) dimethyl sulfoxide) into individual wells of the plates.
Four wells were designated to a single compound. The plates were allowed to incubate at 37°C for 96 h. Afterwards, the medium was aspirated and 3-[4,5-dimethylthiazol-2-yl]-2,5-diphenyltetrazolium bromide (MTT) (0.4 mg/mL) in medium was added to each well and subsequently incubated for 3 h. The medium was aspirated and 150 μL dimethyl sulfoxide (DMSO) was added to each well. The plates were vortexed followed by the measurement of absorbance at 540 nm on a microplate reader. The results were presented as inhibition (%) of proliferation in contrast to controls comprising 0.1%

In general, IC50 refers to the concentration that gives 50% inhibition. Usually viability stands for the share of living cells, or the viability signal relative to a control. Take `COc1ccc(/C=C/C(=O)c2sc(SCC(=O)Nc3nc(-c4ccc(Cl)cc4)cs3)nc2C)cc1` [Compound 10j, (E)-N-(4-(4-chlorophenyl)thiazol-2-yl)-2-((5-(3-(4-methoxyphenyl)acryloyl)-4-methylthiazol-2-yl)thio)acetamide]: the “Tub. enzyme inhibition assay %inhibition” value was determined as 2.01% in the data set with tubulin (conc 0.01 (unit not given)); 7.08% in the data set with tubulin (conc 0.1 (unit not given)); 22.6% with tubulin (conc 1 (unit not given)); 45.7% in the data set with tubulin (conc 10 (unit not given)); 75.5% with tubulin (conc 100 (unit not given)). In addition, the “Tub. enzyme inhibition assay K. Activity” value turned out to be 117.59 in the data set on tubulin (conc 0.01 (unit not given)); 111.51 in the data set on tubulin (conc 0.1 (unit not given)); 92.923 in the data set with tubulin (conc 1 (unit not given)); 65.175 with tubulin (conc 10 (unit not given)); 29.401 with tubulin (conc 100 (unit not given)). The IC50 in the data set on tubulin is 20.6 ± 0.75 µM. Moreover, the “Tub. (IC50) IC50±SD” value in the data set on tubulin is 11.14 ± 0.41 µg/mL. Also, in data set [1], the viability at 96 h, 50 µM amounted to 93%.
For `Cc1ccc(-c2csc(NC(=O)CSc3nc(C)c(C(=O)/C=C/c4ccccc4)s3)n2)cc1` [Compound 10k, (E)-2-((5-cinnamoyl-4-methylthiazol-2-yl)thio)-N-(4-(p-tolyl)thiazol-2-yl)acetamide], the “Tub. enzyme inhibition assay %inhibition” value turned out to be 0.28% with tubulin (conc 0.01 (unit not given)); 5.09% in the data set on tubulin (conc 0.1 (unit not given)); 16.5% with tubulin (conc 1 (unit not given)); 36.5% in the data set with tubulin (conc 10 (unit not given)); 71.9% in the data set with tubulin (conc 100 (unit not given)). The “Tub. enzyme inhibition assay K. Activity” value came out at 119.66 in the data set with tubulin (conc 0.01 (unit not given)); 113.89 with tubulin (conc 0.1 (unit not given)); 100.23 in the data set on tubulin (conc 1 (unit not given)); 76.175 in the data set with tubulin (conc 10 (unit not given)); 33.707 in the data set with tubulin (conc 100 (unit not given)). In the data set with tubulin, the IC50 stood at 47.8 ± 1.74 µM. For the same compound, the “Tub. (IC50) IC50±SD” value in the data set on tubulin amounted to 23.48 ± 0.86 µg/mL. Also, the viability at 96 h, 50 µM in data set [1] turned out to be 90%.
With `COc1ccc(/C=C/C(=O)c2sc(SCC(=O)Nc3nc(-c4ccccc4)cs3)nc2C)cc1` [Compound 10e, (E)-2-((5-(3-(4-methoxyphenyl)acryloyl)-4-methylthiazol-2-yl)thio)-N-(4-phenylthiazol-2-yl)acetamide], the “Tub. enzyme inhibition assay %inhibition” value in the data set with tubulin (conc 0.01 (unit not given)) turned out to be 2.57%; with tubulin (conc 0.1 (unit not given)), 9.6%; with tubulin (conc 1 (unit not given)), 20.4%; in the data set with tubulin (conc 10 (unit not given)), 46%; in the data set with tubulin (conc 100 (unit not given)) it was 83.3%. The “Tub. enzyme inhibition assay K. Activity” value with tubulin (conc 0.01 (unit not given)) was 116.92; in the data set on tubulin (conc 0.1 (unit not given)) it was 108.49; in the data set on tubulin (conc 1 (unit not given)) it was 95.5; with tubulin (conc 10 (unit not given)), 64.791; with tubulin (conc 100 (unit not given)), 19.996. In the data set with tubulin, the IC50 was 15.3 ± 0.49 µM. Moreover, the “Tub. (IC50) IC50±SD” value with tubulin is 7.77 ± 0.25 µg/mL. This compound returned a viability at 96 h, 50 µM in data set [1] of 92%.
